Measurements reported in the NIST ThermoML archive (doi:10.1016/j.jct.2017.10.016).
± gives the expanded uncertainty stated by the source.

Assay: xn = mol fraction of the nth substance listed
Conditions: Liquid, Buoyancy - hydrostatic balance with magnetic suspension - one sinker

C=C(F)C(F)(F)F [2,3,3,3-tetrafluoro-1-propene] + CCC
Conditions | mass density [kg/m3]
255.05 K, x1 = 0.217 | 705.65 ± 3.9
255.24 K, x1 = 0.322 | 772.45 ± 3.9
257.01 K, x1 = 0.422 | 831.62 ± 3.8
259.89 K, x1 = 0.322 | 763.53 ± 3.8
259.9 K, x1 = 0.533 | 897.69 ± 3.9
260.22 K, x1 = 0.217 | 695.43 ± 3.9
260.27 K, x1 = 0.422 | 825.19 ± 3.8
264.82 K, x1 = 0.322 | 754.19 ± 3.8
264.85 K, x1 = 0.533 | 887.37 ± 3.9
264.95 K, x1 = 0.217 | 686.56 ± 3.9
265.38 K, x1 = 0.422 | 815.01 ± 3.8
269.81 K, x1 = 0.533 | 876.78 ± 3.8
269.89 K, x1 = 0.217 | 677.65 ± 3.8
269.95 K, x1 = 0.322 | 744.13 ± 3.8
270.15 K, x1 = 0.422 | 805.93 ± 3.8
270.16 K, x1 = 0.113 | 610.61 ± 3.9
274.77 K, x1 = 0.533 | 865.74 ± 3.7
274.83 K, x1 = 0.217 | 668.53 ± 3.8
274.96 K, x1 = 0.113 | 602.76 ± 3.8
275.02 K, x1 = 0.625 | 920.19 ± 3.6
275.16 K, x1 = 0.422 | 794.82 ± 3.8
275.2 K, x1 = 0.322 | 733.29 ± 3.7
279.91 K, x1 = 0.217 | 658.85 ± 3.7
279.98 K, x1 = 0.422 | 784.38 ± 3.7
280.01 K, x1 = 0.113 | 594.34 ± 3.7
280.03 K, x1 = 0.322 | 723.1 ± 3.7
280.14 K, x1 = 0.625 | 907.78 ± 3.6
280.17 K, x1 = 0.533 | 852.23 ± 3.7
284.9 K, x1 = 0.322 | 712.55 ± 3.7
284.91 K, x1 = 0.217 | 649.05 ± 3.6
284.93 K, x1 = 0.113 | 585.81 ± 3.7
284.95 K, x1 = 0.533 | 840.56 ± 3.6
284.97 K, x1 = 0.422 | 774.16 ± 3.7
285.18 K, x1 = 0.625 | 895.02 ± 3.6
289.94 K, x1 = 0.533 | 828.05 ± 3.6
289.97 K, x1 = 0.422 | 762.51 ± 3.6
290 K, x1 = 0.533 | 827.87 ± 3.6
290.02 K, x1 = 0.113 | 576.78 ± 3.6
290.02 K, x1 = 0.217 | 638.62 ± 3.6
290.08 K, x1 = 0.322 | 700.83 ± 3.6
290.11 K, x1 = 0.625 | 882 ± 3.6
294.96 K, x1 = 0.322 | 689.46 ± 3.6
294.96 K, x1 = 0.422 | 750.87 ± 3.6
294.97 K, x1 = 0.533 | 815.76 ± 3.5
295 K, x1 = 0.113 | 567.56 ± 3.5
295.22 K, x1 = 0.625 | 868.11 ± 3.5
299.04 K, x1 = 0.422 | 742.17 ± 3.4
299.86 K, x1 = 0.113 | 558.16 ± 3.5
299.91 K, x1 = 0.533 | 803.63 ± 3.4
300.13 K, x1 = 0.625 | 854.48 ± 3.4
